From patent US20230045421A1 (priority 2018, published 2023)
Read-outs that look alike come from different tables or passages of the source.

Test system: HBV rcDNA
Experiment: HepDE19 assay with bDNA quantitation of HBV rcDNA
Type: cell-based, hepatitis B virus
Method: HepDE19 Assay with bDNA Quantitation of HBV rcDNA:
HepDE19 cell culture system is a HepG2 (human hepatocarcinoma) derived cell line that supports HBV DNA replication and cccDNA formation in a tetracycline (Tet)-regulated manner and produces HBV rcDNA and a detectable reporter molecule dependent on the production and maintenance of cccDNA (Guo, et al., 2007, J. Virol. 81:12472-12484).
HepDE19 (50,000 cells/well) were plated in 96-well collagen-coated tissue-culture treated microtiter plates in DMEM/F12 medium supplemented with 10% fetal bovine serum, 1% penicillin-streptomycin and 1 μg/mL tetracycline and incubated in a humidified incubator at 37° C. and 5% CO2 overnight. Next day, the cells were switched to fresh medium without tetracycline and incubated for 4 hours at 37° C. and 5% CO2. The cells were treated with fresh Tet-free medium with compounds at concentrations starting at 25 μM and a serial, […], 8-point, titration series in duplicate. The final DMSO concentration in the assay was 0.5%. The plates were incubated for 7 days in a humidified incubator at 37° C. and 5% CO2. Following a 7 day-incubation, the level of rcDNA present in the inhibitor-treated wells was measured using a Quantigene 2.0 bDNA assay kit (Affymetrix, Santa Clara, Calif.) with HBV specific custom probe set and manufacturers instructions. Concurrently, the effect of compounds on cell viability was assessed using replicate plates, plated at a density of 5,000 cells/well and incubated for 4 days, to determine the ATP content as a measure of cell viability using the cell-titer glo reagent (CTG; Promega Corporation, Madison, Wis.) as per manufacturer's instructions. The plates were read using a Victor luminescence plate reader (PerkinElmer Model 1420 Multilabel counter) and the relative luminescence units (RLU) data generated from each well was calculated as % inhibition of the untreated control wells and analyzed using XL-Fit module in Microsoft Excel to determine EC50 and EC90 (bDNA) and CC50 (CTG) values using a 4-parameter curve fitting algorithm.

[1] = Hepatitis B virus, HepDE19, HepDE19 assay, inhibition of formation of relaxed circular DNA (rcDNA), bDNA quantitation, read-out: DE-19bDNA EC50
[2] = HepDE19 assay, inhibition of formation of rcDNA, read-out: DE-19bDNA EC50
[3] = HepDE19 assay, inhibition of formation of relaxed circular DNA (rcDNA), bDNA quantitation, read-out: DE-19bDNA EC50
[4] = Hepatitis B virus, HepDE19, HepDE19 assay, inhibition of formation of rcDNA, read-out: DE-19bDNA EC50

CC(c1cnc(-n2ccnn2)c2ccccc12)N(C)C(=O)Nc1ccc(F)c(Cl)c1 (racemic) [Compound 354, 1-(1-(1-(1H-1,2,3-triazol-1-yl)isoquinolin-4-yl)ethyl)-3-(3-chloro-4-fluorophenyl)-1-methylurea]
EC50 [1]: 0.13 µM

C[C@H](c1c[nH]c(=O)c2ccccc12)N(C)C(=O)Nc1ccc(Br)cc1 [Compound 294, (R)-3-(4-Bromophenyl)-1-methyl-1-(1-(1-oxo-1,2-dihydroisoquinolin-4-yl)ethyl)urea]
EC50 (Hepatitis B virus, HepDE19, read-out: DE-19bDNA EC50 (μM), HepDE19 assay, inhibition of formation of relaxed circular DNA (rcDNA), bDNA quantitation): 0.87 µM

CC(c1c[nH]c(=O)c2ccccc12)N(C(=O)Nc1ccc(F)c(Cl)c1)C1CC1 (single isomer, unassigned) [Compound 67, 3-(3-Chloro-4-fluorophenyl)-1-cyclopropyl-1-(1-(1-oxo-1,2-dihydroisoquinolin-4-yl)ethyl)urea]
EC50 [2]: 7.9 µM

CC(c1c[nH]c(=O)c2ccccc12)N(CC1CCN(S(C)(=O)=O)CC1)C(=O)Nc1ccc(F)c(Cl)c1 (single isomer, unassigned) [Compound 204, 3-(3-Chloro-4-fluorophenyl)-1-((1-(methylsulfonyl)piperidin-4-yl)methyl)-1-(1-(1-oxo-1,2-dihydroisoquinolin-4-yl)ethyl)urea]
EC50 [2]: 0.06 µM

CC(c1c[nH]c(=O)c2c(F)c(F)ccc12)N(C)C(=O)Nc1ccc(F)c(Cl)c1 (single isomer, unassigned) [Compound 331, 3-(3-Chloro-4-fluorophenyl)-1-(1-(7,8-difluoro-1-oxo-1,2-dihydroisoquinolin-4-yl)ethyl)-1-methylurea]
EC50 [3]: 0.015 µM

CC(c1cnc(N)c2ccccc12)N(C)C(=O)Nc1ccc(F)c(Cl)c1 (single isomer, unassigned) [Compound 238, 1-(1-(1-Aminoisoquinolin-4-yl)ethyl)-3-(3-chloro-4-fluorophenyl)-1-methylurea]
EC50 [2]: 3.4 µM

CCN(C(=O)Nc1ccc(F)c(F)c1)C(C)c1c[nH]c(=O)c2c(F)c(F)ccc12 (single isomer, unassigned) [Compound 462, 1-(1-(7,8-Difluoro-1-oxo-1,2-dihydroisoquinolin-4-yl)ethyl)-3-(3,4-difluorophenyl)-1-ethylurea]
EC50 [3]: 0.92 µM

CCN(C(=O)Nc1ccc(F)c(Cl)c1)C(c1c[nH]c(=O)c2ccccc12)C(C)C (single isomer, unassigned) [Compound 55, 3-(3-Chloro-4-fluorophenyl)-1-ethyl-1-(2-methyl-1-(1-oxo-1,2-dihydroisoquinolin-4-yl)propyl)urea]
EC50 (read-out: DE-19bDNA EC50, HepDE19 assay, inhibition of formation of rcDNA): 11 µM

COc1ccc2c(C(C)N(C)C(=O)Nc3ccc(F)c(Cl)c3)c[nH]c(=O)c2c1 (single isomer, unassigned) [Compound 178, 3-(3-Chloro-4-fluorophenyl)-1-(1-(7-methoxy-1-oxo-1,2-dihydroisoquinolin-4-yl)ethyl)-1-methylurea]
EC50 [2]: 0.17 µM

CCCCN(Cc1cnc(OC)c2ccccc12)C(=O)Nc1ccc(F)c(Cl)c1 [Compound 33, 1-Butyl-3-(3-chloro-4-fluorophenyl)-1-((1-methoxyisoquinolin-4-yl)methyl)urea]
EC50 [4]: 0.62 µM

CC(c1c[nH]c(=O)c2cc(F)c(F)cc12)N(C)C(=O)Nc1ccc(F)c(C(F)F)c1 (single isomer, unassigned) [Compound 502, 1-(1-(6,7-Difluoro-1-oxo-1,2-dihydroisoquinolin-4-yl)ethyl)-3-(3-(difluoromethyl)-4-fluorophenyl)-1-methylurea]
EC50 [3]: 0.017 µM

CCN(C(=O)Nc1ccc(F)c(F)c1)C(C)c1c[nH]c(=O)c2c(F)c(F)ccc12 (single isomer, unassigned) [Compound 463, 1-(1-(7,8-Difluoro-1-oxo-1,2-dihydroisoquinolin-4-yl)ethyl)-3-(3,4-difluorophenyl)-1-ethylurea]
EC50 [3]: 0.008 µM

CNC(=O)CCN(C(=O)Nc1ccc(F)c(Cl)c1)C(C)c1c[nH]c(=O)c2ccccc12 (racemic) [Compound 104, 3-(3-(3-chloro-4-fluorophenyl)-1-(1-(1-oxo-1,2-dihydroisoquinolin-4-yl)ethyl)ureido)-N-methylpropanamide]
EC50 [4]: 0.57 µM

CC(c1c[nH]c(=O)c2ccccc12)N(CCC#N)C(=O)Nc1ccc(F)c(Cl)c1 (single isomer, unassigned) [Compound 112, 3-(3-Chloro-4-fluorophenyl)-1-(2-cyanoethyl)-1-(1-(1-oxo-1,2-dihydroisoquinolin-4-yl)ethyl)urea]
EC50 [2]: 2.8 µM

CCN(C(=O)Nc1ccc(F)c(Cl)c1)C(c1ccccc1)c1c[nH]c(=O)c2ccccc12 (single isomer, unassigned) [Compound 69, 3-(3-Chloro-4-fluorophenyl)-1-ethyl-1-((1-oxo-1,2-dihydroisoquinolin-4-yl)(phenyl)methyl)urea]
EC50 (Hepatitis B virus, HepDE19, read-out: DE-19bDNA EC50 (μM), HepDE19 assay, inhibition of formation of rcDNA): 9.7 µM

CC(c1c[nH]c(=O)c2ccccc12)N(CC1CCN(C)CC1)C(=O)Nc1ccc(F)c(Cl)c1 (single isomer, unassigned) [Compound 207, 3-(3-Chloro-4-fluorophenyl)-1-((1-methylpiperidin-4-yl)methyl)-1-(1-(1-oxo-1,2-dihydroisoquinolin-4-yl)ethyl)urea]
EC50 [4]: 9 µM

CC(C)CN(C(=O)Nc1ccc(F)c(Cl)c1)C(C)c1c[nH]c(=O)c2ccccc12 (single isomer, unassigned) [Compound 144, 3-(3-chloro-4-fluorophenyl)-1-isobutyl-1-(1-(1-oxo-1,2-dihydroisoquinolin-4-yl)ethyl)urea]
EC50 [2]: 0.01 µM

CC(c1cnc(OCc2ncn(C)n2)c2cc(F)c(F)cc12)N(CCCO)C(=O)Nc1ccc(F)c(Cl)c1 (single isomer, unassigned) [Compound 348, 3-(3-chloro-4-fluorophenyl)-1-(1-(6,7-difluoro-1-((1-methyl-1H-1,2,4-triazol-3-yl)methoxy)isoquinolin-4-yl)ethyl)-1-(3-hydroxypropyl)urea]
EC50 [3]: 1.1 µM

COc1ccc2c(=O)[nH]cc(C(C)N(C)C(=O)Nc3ccc(F)c(Cl)c3)c2c1 (single isomer, unassigned) [Compound 180, 3-(3-Chloro-4-fluorophenyl)-1-(1-(6-methoxy-1-oxo-1,2-dihydroisoquinolin-4-yl)ethyl)-1-methylurea]
EC50 [2]: 1.4 µM

CC(C)CN(C(=O)Nc1ccc(F)c(Cl)c1)C(C)c1c[nH]c(=O)c2cc(F)c(F)cc12 (single isomer, unassigned) [Compound 281, 3-(3-Chloro-4-fluorophenyl)-1-(1-(6,7-difluoro-1-oxo-1,2-dihydroisoquinolin-4-yl)ethyl)-1-isobutylurea]
EC50 [1]: 0.002 µM

COc1ncc(CN(C)C(=O)Nc2ccc(F)c(C)c2)c2ccccc12 [Compound 3, 3-(4-Fluoro-3-methylphenyl)-1-((1-methoxyisoquinolin-4-yl)methyl)-1-methylurea]
EC50 [4]: 1.1 µM

CC(c1cnc(OCc2ncn(C)n2)c2cc(F)c(F)cc12)N(C)C(=O)Nc1ccc(F)c(Cl)c1 (single isomer, unassigned) [Compound 346, 3-(3-Chloro-4-fluorophenyl)-1-(1-(6,7-difluoro-1-((1-methyl-1H-1,2,4-triazol-3-yl)methoxy)isoquinolin-4-yl)ethyl)-1-methylurea]
EC50 [3]: 0.67 µM

C[C@H](c1c[nH]c(=O)c2ccccc12)N(C)C(=O)Nc1cc(F)c(F)c(F)c1 [Compound 91, (R)-1-Methyl-1-(1-(1-oxo-1,2-dihydroisoquinolin-4-yl)ethyl)-3-(3,4,5-trifluorophenyl)urea]
EC50 [4]: 0.16 µM

CC(c1c[nH]c(=O)c2ccccc12)N(Cc1nccs1)C(=O)Nc1ccc(F)c(Cl)c1 (single isomer, unassigned) [Compound 311, 3-(3-Chloro-4-fluorophenyl)-1-(1-(1-oxo-1,2-dihydroisoquinolin-4-yl)ethyl)-1-(thiazol-2-ylmethyl)urea]
EC50 [3]: 0.066 µM

CC(C)CN(C(=O)Nc1ccc(F)c(Cl)c1)C(C)c1cn(C)c(=O)c2cc(F)c(F)cc12 (single isomer, unassigned) [Compound 342, 3-(3-Chloro-4-fluorophenyl)-1-(1-(6,7-difluoro-2-methyl-1-oxo-1,2-dihydroisoquinolin-4-yl)ethyl)-1-isobutylurea]
EC50 [3]: 0.62 µM

CC(c1cn(C)c(=O)c2cc(F)c(F)cc12)N(CCCO)C(=O)Nc1ccc(F)c(Cl)c1 (single isomer, unassigned) [Compound 350, 3-(3-Chloro-4-fluorophenyl)-1-(1-(6,7-difluoro-2-methyl-1-oxo-1,2-dihydroisoquinolin-4-yl)ethyl)-1-(3-hydroxypropyl)urea]
EC50 [3]: 3.6 µM
